In ChEMBL document CHEMBL6134884, “Identification of JNJ-61803534, a RORγt Inverse Agonist for the Treatment of Psoriasis” (J Med Chem, 2025):
≈ marks a conversion by molar mass, not a printed value.

Legend:
[1] = target: T1, Nuclear receptor subfamily 1 group I member 2 (Homo sapiens, UniProt O75469); assay: Activation of human PXR at 1 uM relative to control; assay type: toxicity
T1 sequence (O75469 whole entry): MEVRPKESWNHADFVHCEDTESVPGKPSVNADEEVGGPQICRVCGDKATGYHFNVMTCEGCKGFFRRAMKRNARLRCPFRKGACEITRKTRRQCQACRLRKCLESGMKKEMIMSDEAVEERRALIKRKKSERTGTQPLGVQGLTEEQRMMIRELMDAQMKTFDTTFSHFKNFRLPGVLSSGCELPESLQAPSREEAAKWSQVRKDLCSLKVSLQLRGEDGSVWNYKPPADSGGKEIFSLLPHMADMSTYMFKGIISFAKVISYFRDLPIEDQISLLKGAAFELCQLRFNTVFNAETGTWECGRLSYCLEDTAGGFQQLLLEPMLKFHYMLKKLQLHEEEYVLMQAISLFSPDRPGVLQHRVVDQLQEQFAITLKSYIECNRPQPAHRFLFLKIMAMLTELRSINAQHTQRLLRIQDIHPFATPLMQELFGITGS

[2] = target: T2, Nuclear receptor ROR-gamma (Homo sapiens, UniProt P51449); assay: Inverse agonist activity at RORgammat in human whole blood assessed as IL-17A production incubated for 1 hrs by ELISA analysis; assay type: tissue-based
T2 sequence (P51449 whole entry): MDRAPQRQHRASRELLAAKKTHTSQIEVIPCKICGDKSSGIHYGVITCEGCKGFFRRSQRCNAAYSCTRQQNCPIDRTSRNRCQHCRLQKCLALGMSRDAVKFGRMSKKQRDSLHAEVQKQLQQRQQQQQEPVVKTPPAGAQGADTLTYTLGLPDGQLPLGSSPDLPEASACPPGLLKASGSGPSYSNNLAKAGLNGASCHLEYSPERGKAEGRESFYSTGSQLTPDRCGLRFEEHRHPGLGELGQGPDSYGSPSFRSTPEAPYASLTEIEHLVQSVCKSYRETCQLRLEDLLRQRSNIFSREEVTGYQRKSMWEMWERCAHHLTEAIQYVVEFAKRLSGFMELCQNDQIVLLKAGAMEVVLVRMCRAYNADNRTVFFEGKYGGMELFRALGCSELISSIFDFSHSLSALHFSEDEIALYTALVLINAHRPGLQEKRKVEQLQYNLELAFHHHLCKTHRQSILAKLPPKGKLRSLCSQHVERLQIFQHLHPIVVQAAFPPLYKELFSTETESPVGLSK

[3] = Aqueous solubility of the compound at pH 7; assay type: physicochemical; conditions: aqueous solution
[4] = target: T3, Nuclear receptor ROR-beta (Homo sapiens, UniProt Q92753); assay: Inverse agonist activity at human RORbeta assessed as dissociation constant by thermofluor assay
T3 sequence (Q92753 whole entry): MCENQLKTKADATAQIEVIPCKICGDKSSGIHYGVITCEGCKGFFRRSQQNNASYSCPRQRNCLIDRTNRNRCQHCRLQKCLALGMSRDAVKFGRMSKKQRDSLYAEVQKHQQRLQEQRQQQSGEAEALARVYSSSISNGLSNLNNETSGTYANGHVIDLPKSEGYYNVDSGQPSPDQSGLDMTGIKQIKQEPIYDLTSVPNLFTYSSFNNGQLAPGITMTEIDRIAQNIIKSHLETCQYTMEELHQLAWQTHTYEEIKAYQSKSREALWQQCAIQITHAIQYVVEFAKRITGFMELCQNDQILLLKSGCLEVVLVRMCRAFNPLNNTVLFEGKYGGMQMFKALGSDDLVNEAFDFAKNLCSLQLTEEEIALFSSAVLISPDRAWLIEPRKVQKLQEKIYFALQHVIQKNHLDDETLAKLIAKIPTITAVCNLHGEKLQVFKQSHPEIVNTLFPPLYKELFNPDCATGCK

[5] = Aqueous solubility of the compound at pH 2; assay type: physicochemical; conditions: aqueous solution
[6] = target: T4, PXR (Homo sapiens, UniProt O75469); assay: Activation of human PXR at 5 uM relative to control; assay type: toxicity; conditions: read-out: Activity
T4 sequence (O75469 whole entry): T1 sequence (O75469 whole entry)

[7] = target: T2, Nuclear receptor ROR-gamma; assay: Inverse agonist activity at human RORgammat by mammalian 1-hybrid assay
[8] = target: T2, Nuclear receptor ROR-gamma; assay: Inverse agonist activity at N-terminal his-tagged wild type human RORgammat LBD domain expressed in Escherichia coli assessed as dissociation constant by thermofluor assay
[9] = Solubility of compound in FaSSIF; assay type: physicochemical
[10] = target: T4, PXR; assay: Activation of human PXR at 10 uM relative to control; assay type: toxicity; conditions: read-out: Activity
[11] = target: Cytochrome P450 3A4 (Homo sapiens, UniProt P08684); assay: Induction of CYP3A4 in human hepatocytes at 10 uM relative to control; assay type: ADME, cell-based, Hepatocyte
Sequence of Cytochrome P450 3A4 (P08684 whole entry): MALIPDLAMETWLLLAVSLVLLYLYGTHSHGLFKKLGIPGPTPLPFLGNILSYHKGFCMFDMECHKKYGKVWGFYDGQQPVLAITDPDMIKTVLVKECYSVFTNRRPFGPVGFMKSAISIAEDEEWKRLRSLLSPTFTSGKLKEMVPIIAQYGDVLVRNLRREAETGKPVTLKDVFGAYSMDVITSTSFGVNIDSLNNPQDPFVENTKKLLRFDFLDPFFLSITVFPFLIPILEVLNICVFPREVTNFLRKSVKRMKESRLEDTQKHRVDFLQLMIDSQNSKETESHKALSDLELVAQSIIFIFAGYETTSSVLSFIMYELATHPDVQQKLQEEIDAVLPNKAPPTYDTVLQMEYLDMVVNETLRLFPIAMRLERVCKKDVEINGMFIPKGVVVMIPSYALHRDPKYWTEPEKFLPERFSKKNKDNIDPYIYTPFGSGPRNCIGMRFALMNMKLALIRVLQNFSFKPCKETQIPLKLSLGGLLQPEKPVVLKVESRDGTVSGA

[12] = Solubility of compound in SGF; assay type: physicochemical
[13] = Cmax in male Sprague-Dawley rat at 1 mg/kg, iv or 5 mg/kg, po measured 24 hrs post dose by LC-MS/MS analysis; assay type: ADME, organism-based; conditions: in vivo
[14] = Drug uptake in male rat plasma at 50 mg/kg, po after 5 days; assay type: ADME, organism-based; conditions: in vivo, 120 h, time 5 day

Compound | solubility [3] | Kd [4] | solubility [5] | IC50 [7] | Kd [8] | solubility [9] | Activity [11] | solubility [12] | Drug uptake [14] | Activity [1] | IC50 [2] | activity at 5 µM [6] | activity at 10 µM [10] | Cmax [13]
C[C@H](NS(=O)(=O)c1ccc(-c2sc(C(=O)NCC(C)(C)O)nc2C(=O)N2CCC(F)CC2)c(Cl)c1Cl)C(F)(F)F | – | – | – | – | – | – | – | – | – | 13% | – | – | – | –
C[C@H]1C[C@@H](F)CCN1C(=O)c1nc(C(=O)NCC(C)(C)O)sc1-c1ccc(C(O)(C(F)(F)F)C(F)(F)F)c(Cl)c1Cl | < 4 µM | 1000 nM | < 4 µM | – | – | – | – | – | – | 14% | 210 nM | 40% | – | –
CC(C)(O)CNC(=O)c1nc(C(=O)N2CCC(F)CC2)c(-c2ccc(C(O)(C(F)(F)F)C(F)(F)F)c(Cl)c2Cl)s1 | < 4 µM | 1900 nM | < 4 µM | – | – | – | – | – | – | 1.5% | 890 nM | 14% | – | –
C[C@H]1CC(F)(F)CN1C(=O)c1nc(C(=O)NCC(C)(C)O)sc1-c1ccc(C(O)(C(F)(F)F)C(F)(F)F)c(Cl)c1Cl | < 4 µM | 2300 nM | < 4 µM | – | – | – | – | – | – | 27% | 120 nM | 50% | – | –
CCN(CC)C(=O)c1nc(C(=O)N2C[C@H](O)C[C@H](O)C2)sc1-c1ccc(C(O)(C(F)(F)F)C(F)(F)F)c(Cl)c1Cl | 41 µM (≈ 26.2 µg/mL) | 13000 nM | 52 µM (≈ 33.2 µg/mL) | – | – | – | – | – | – | 2.7% | 190 nM | 4.7% | – | 100 nM
CCN(C(=O)c1nc(C(=O)NCC(C)(C)O)sc1-c1ccc(C(O)(C(F)(F)F)C(F)(F)F)c(Cl)c1Cl)C1CCC1 | – | 1100 nM | – | – | 0.2 nM | – | – | – | – | 10% | – | 21% | – | –

Now from value to molecule, other results behind:

solubility [3] | Kd [4] | solubility [5] | IC50 [7] | Kd [8] | solubility [9] | Activity [11] | solubility [12] | Drug uptake [14] | Compound | Activity [1] | IC50 [2] | activity at 5 µM [6] | activity at 10 µM [10] | Cmax [13]
– | 2300 nM | – | 9.4 nM | 0.4 nM | – | – | – | – | CN(C(=O)c1nc(C(=O)NCC(C)(C)O)sc1-c1ccc(C(O)(C(F)(F)F)C(F)(F)F)c(Cl)c1Cl)C1CCC1 | 1.9% | – | 9.1% | – | –
86 µM (≈ 48.8 µg/mL) | 15000 nM | 35 µM (≈ 19.9 µg/mL) | – | – | 250 µM (≈ 142 µg/mL) | 16% | 63 µM (≈ 35.8 µg/mL) | – | Cc1cc(C(O)(C(F)(F)F)C(F)(F)F)ccc1-c1sc(C(=O)NCC(C)(C)O)nc1C(=O)N1CCC[C@@H]1C | 12% | 530 nM | – | 31% | –
13 µM (≈ 7.85 µg/mL) | 13000 nM | 12 µM (≈ 7.24 µg/mL) | – | – | 99 µM (≈ 59.7 µg/mL) | 33% | 22 µM (≈ 13.3 µg/mL) | – | C[C@H]1CCCN1C(=O)c1nc(C(=O)NCC(C)(C)O)sc1-c1ccc(C(O)(C(F)(F)F)C(F)(F)F)cc1C(F)F | 27% | – | – | 74% | –
< 4 µM | 3500 nM | < 4 µM | – | – | – | 16% | – | Active | CCN(CC)C(=O)c1nc(C(=O)NCC(C)(C)O)sc1-c1ccc(C(O)(C(F)(F)F)C(F)(F)F)c(Cl)c1Cl | 32% | – | 76% | – | –
< 4 µM | 1400 nM | < 4 µM | – | 0.25 nM | 4.6 µM (≈ 2.68 µg/mL) | 10% | < 4 µM | – | Cc1cc(C(O)(C(F)(F)F)C(F)(F)F)ccc1-c1sc(C(=O)NCC(C)(C)O)nc1C(=O)N1CCCC[C@@H]1C | 8% | 160 nM | – | 24% | –
< 4 µM | 850 nM | < 4 µM | – | – | 14 µM (≈ 8.65 µg/mL) | – | < 4 µM | – | C[C@H]1CCCCN1C(=O)c1nc(C(=O)NCC(C)(C)O)sc1-c1ccc(C(O)(C(F)(F)F)C(F)(F)F)cc1C(F)F | 28% | – | – | 84% | –
< 4 µM | 4900 nM | 6.3 µM (≈ 3.7 µg/mL) | – | 0.63 nM | 130 µM (≈ 76.4 µg/mL) | 11% | 6.3 µM (≈ 3.7 µg/mL) | – | C[C@H]1CCCN1C(=O)c1nc(C(=O)NCC(C)(C)O)sc1-c1ccc(C(O)(C(F)(F)F)C(F)(F)F)cc1Cl | 3.6% | 240 nM | – | 27% | –
– | – | – | 1700 nM | – | – | – | – | – | Cc1c(C(N)=O)cc(-c2ccc(C(O)(C(F)(F)F)C(F)(F)F)cc2)n1CC1CCCCC1 | – | – | – | – | –
– | – | – | 1780 nM | – | – | – | – | – | Cc1c(S(N)(=O)=O)cc(-c2ccc(S(=O)(=O)NC(C)(C)C)cc2)n1CC1CCCCC1 | – | – | – | – | –
< 4 µM | 430 nM | < 4 µM | – | 0.058 nM | 77 µM (≈ 46.4 µg/mL) | – | < 4 µM | – | C[C@H]1CCCCN1C(=O)c1nc(C(=O)NCC(C)(C)O)sc1-c1ccc(C(O)(C(F)(F)F)C(F)(F)F)cc1Cl | 13% | 81 nM | – | 25% | –
